Experimental data reported in patent US20100003217A1, “Compounds and Pharmaceutical Compositions for the Treatment of Viral Infections” (priority 2008, published 2010).
Each block holds one compound with its values, some of them ahead of it.

Tests used:
CYP3A4 [1] = assay: Effect of CYP3A4 inhibitors (ketoconazole, ritonavir) on metabolic stability in monkey liver microsomes; assay type: in vitro ADME; conditions: monkey microsomes 0.5 mg/mL, 30 min, 10 μM, NADPH
Protocol: (§1) Incubations were conducted in a final volume of 0.1 mL per incubation time point. […] Final solvent (DMSO or methanol) concentration was maintained at 0.2%. Reactions were initiated by the addition of an NADPH regenerating system (1.3 mM NADP^+, 3.3 mM glucose-6-phosphate, 0.4 U/ml glucose-6-phosphate dehydrogenase, and 3.3 mM MgCl2, final concentrations). Incubations with no inhibitor served as control. Reactions were terminated at 30 min (monkey) or 60 min (rat and human) by the addition of 0.2 mL of stop solution (acetonitrile). The samples were vortex-mixed for 30 sec and then centrifuged at 10,000×g for 10 min. The supernatant was dried using a Labconco CentriVap concentrator and the dry residue reconstituted in water, transferred to an HPLC glass vial and analyzed by HPLC-UV method 1 (described above).
(§2) Because Compound 1 is rapidly metabolized in monkey liver microsomes, incubation conditions were adjusted by reducing protein content to 0.5 mg/mL and incubation time to 30 min. Incubation conditions for rat and human were unchanged; protein was 1 mg/mL and incubation time was 60 min.

CYP2E1 = CYP2E1 (Homo sapiens, UniProt P05181); assay: Incubation with human recombinant CYP450 supersomes, 2E1; assay type: in vitro ADME; conditions: CYP450 2E1 supersomes, 60 min, 10 μM, average of two experiments
CYP2E1, sequence (P05181 whole entry): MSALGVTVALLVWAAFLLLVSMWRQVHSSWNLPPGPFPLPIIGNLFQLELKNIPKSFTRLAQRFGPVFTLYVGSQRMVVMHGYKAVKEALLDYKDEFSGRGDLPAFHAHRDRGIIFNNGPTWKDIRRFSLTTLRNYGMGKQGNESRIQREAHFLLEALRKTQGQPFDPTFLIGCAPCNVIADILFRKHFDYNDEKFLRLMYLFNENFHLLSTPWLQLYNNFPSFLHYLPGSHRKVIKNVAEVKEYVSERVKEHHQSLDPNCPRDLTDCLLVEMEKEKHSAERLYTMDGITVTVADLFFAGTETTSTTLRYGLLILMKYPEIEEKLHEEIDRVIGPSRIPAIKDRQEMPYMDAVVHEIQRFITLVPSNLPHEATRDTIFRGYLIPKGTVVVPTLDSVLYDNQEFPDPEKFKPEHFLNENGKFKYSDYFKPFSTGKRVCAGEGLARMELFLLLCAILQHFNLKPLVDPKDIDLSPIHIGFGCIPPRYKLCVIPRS
Protocol: (§3) Supersomes—Incubations were conducted in a final volume of 0.1 mL reaction buffer (50-100 mM potassium phosphate, pH 7.4 or 100 mM Tris-HCL, pH 7.4) according to protocol provided with each CYP450 supersome. Each reaction contained […] of CYP450 supersome, 1.3 mM NADP^+, 3.3 mM glucose-6-phosphate, 0.4 U/mL glucose-6-phosphate dehydrogenase, 3.3 mM MgCl2 and 10 μM Compound 1. Following incubation for 60 min at 37° C., 100 μL of stop solution (acetonitrile:methanol; 1:1) was added and samples centrifuged for 10 min at 10,000×g. The supernatant was then dried and reconstituted in 10 mM potassium phosphate, pH 5, further transferred to an HPLC glass vial and analyzed by HPLC-UV (described above).

GS4.1 cells = assay: Cytotoxicity (MTS assay), GS4.1 cells, Example 18; assay type: cell-based, human; conditions: wild-type or S282T replicon cells treated with up to 100 μM
Protocol: (§4) Cells were plated and treated with inhibitors as described above.

[2] = Cytotoxicity (MTS assay), GS4.1 cells, Example 18; assay type: cell-based, human; conditions: human, GS4.1 cells (wild-type); GS4.1 (wild-type), MTS assay, N = 3
Protocol: as §4

[3] = Cytotoxicity (MTS assay), 184R-D2 cells; assay type: cell-based; conditions: human, 184R-D2 cells (S282T), 184R-D2 (S282T), N = 3
Protocol: as §4

CYP2B6 = CYP2B6 (Homo sapiens, UniProt P20813); assay: Incubation with human recombinant CYP450 supersomes, 2B6; assay type: in vitro ADME; conditions: CYP450 2B6 supersomes, 60 min, 10 μM, average of two experiments
CYP2B6, sequence (P20813 whole entry): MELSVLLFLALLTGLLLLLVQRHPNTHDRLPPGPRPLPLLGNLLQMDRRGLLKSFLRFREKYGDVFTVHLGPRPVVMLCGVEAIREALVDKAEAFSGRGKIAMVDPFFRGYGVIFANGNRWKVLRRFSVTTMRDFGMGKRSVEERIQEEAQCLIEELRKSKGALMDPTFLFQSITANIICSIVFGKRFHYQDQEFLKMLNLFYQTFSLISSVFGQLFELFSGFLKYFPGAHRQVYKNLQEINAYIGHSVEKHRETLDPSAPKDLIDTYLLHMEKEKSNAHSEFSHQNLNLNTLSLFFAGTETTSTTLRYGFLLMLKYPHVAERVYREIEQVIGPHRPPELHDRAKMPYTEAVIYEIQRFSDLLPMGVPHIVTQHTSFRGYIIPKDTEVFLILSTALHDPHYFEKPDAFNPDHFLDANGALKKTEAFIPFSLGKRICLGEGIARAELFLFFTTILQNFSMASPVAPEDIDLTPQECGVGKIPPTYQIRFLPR
Protocol: as §3

CYP3A4 [4] = assay: Effect of CYP3A4 inhibitors (ketoconazole, ritonavir) on metabolic stability in rat liver microsomes; assay type: in vitro ADME; conditions: rat microsomes 1 mg/mL, 60 min, 10 μM, NADPH
Protocol: as §1, §2

[5] = system: S282T HCV replicon (184R-A cells); assay: microbe, parasite or virus in culture
Protocol: 3. The 184R-A cell line was derived by culturing wild-type replicon cells in the presence of 1 to 5 μM of Compound 1 for >100 days.
1. […] Huh-7 cells were seeded into column 1 of each plate at a similar density.
2. […] Eight additional 3-fold serial dilutions of each compound were prepared from the 2× stock in assay medium. Final drug concentrations ranged from 100 to 0.015 μM.
3. […] This setup was run in duplicate in each 96-well plate.
4. Cells were incubated with inhibitors for three days at 37° C./5% CO2.
1. After three days of drug treatment, media was removed from the plates via gentle tapping and the cells were fixed to the plates with 100 μL/well of 1:1 acetone:methanol.
2. After one minute of incubation at room temperature, plates were washed three times with 100 μL/well of ELISA wash solution and then blocked with 150 μL/well of 10% FBS-TNE.
3. After a one hour incubation at room temperature, plates were washed three times with 100 μL/well of ELISA wash solution, and then 100 μL/well of mouse anti-hepatitis C […] mAb (1 mg/mL stock diluted 1:1,500 in 10% FBS-TNE) was added.
4. Following 2 hours of incubation at 37° C., plates were washed three times with 100 μL/well of ELISA wash solution, and then 100 μL/well of HRP-goat anti-mouse antibody (diluted 1:4,000 in 10% FBS-TNE) was added.
4. After a one hour incubation period at 37° C., each plate was washed three times with 100 μL/well of ELISA wash solution. Color development was then initiated with 100 μL/well of OPD solution.
5. After a 30 minute incubation period in the dark at room temperature, reactions were stopped by adding 100 μL of 2NH2SO4 to each well.
6. The absorbance was measured at 490 nm on a Victor^3 V 1420 multilabel counter (Perkin Elmer). The percent inhibition of HCV replicon replication was calculated for each drug using an average of the duplicate wells.

rat primary hepatocytes = assay: In vitro intracellular half-life of 2′-C-methyl guanosine-5′-triphosphate (Compound 7) in rat primary hepatocytes; assay type: in vitro ADME; conditions: for Decay of Compound 7: level in cellular extracts: rat hepatocytes Rs458, after 24 h incubation with 10 μM [^14C]-Compound 1
Protocol: (§5) Primary hepatocytes were incubated with 10 μM [^14C]-Compound 1 ([…]) or [^14C]-2′-C-methyl guanosine (127 DPM/μmol) for 24 hours at which time the incubation medium was removed and the cell monolayer carefully washed two times with warm (37° C.) PBS and placed back in culture with drug-free medium. At selected times up to 24 hours, the medium was removed and the cell monolayers carefully washed two times with ice-cold PBS. Following the last wash, all PBS was carefully removed and the cell monolayers processed and extracted as previously described. […]

[6] = as above; assay type: in vitro ADME; conditions: primary hepatocytes (cellular extracts)
Protocol: as §5

[7] = rat hepatocytes, [^14C]-Compound 1 removed

Compound: CC(C)(CO)C(=O)SCCOP(=O)(NCc1ccccc1)OC[C@H]1O[C@@H](n2cnc3c(=O)[nH]c(N)nc32)[C@](C)(O)[C@@H]1O (mixture of isomers) [Compound 1, 3-hydroxy-2,2-dimethyl-thiopropionic acid S-(2-{[(2R,3R,4R,5R)-5-(2-amino-6-oxo-1,6-dihydro-purin-9-yl)-3,4-dihydroxy-4-methyl-tetrahydro-furan-2-ylmethoxy]-benzylamino-phosphoryloxy}-ethyl) ester]
% Residual Compound 1 (CYP3A4 [1]; Ketoconazole 0.1 μM): 68%
% Residual Compound 1 (CYP3A4 [1]; Ketoconazole 1 μM): 125%
% Residual Compound 1 (CYP3A4 [1]; Ritonavir 0.1 μM): 41%
% Residual Compound 1 (CYP3A4 [1]; Ritonavir 1 μM): 122%
% Residual Compound 1 (CYP3A4 [1]; inhibitor 0 μM): 25%
% Residual Compound 1 (CYP2E1): 100%
in vitro cytotoxicity (MTS) (GS4.1 cells): no evidence of in vitro cytotoxicity
CC50 at 3 days [2]: > 100 µM
CC50 at 3 days [3]: > 100 µM
% Residual Compound 1 (CYP2B6): 108%
% Residual Compound 1 (CYP3A4 [4]; Ketoconazole 0.1 μM): 83%
% Residual Compound 1 (CYP3A4 [4]; Ketoconazole 1 μM): 120%
% Residual Compound 1 (CYP3A4 [4]; Ritonavir 0.1 μM): 101%
% Residual Compound 1 (CYP3A4 [4]; Ritonavir 1 μM): 123%
% Residual Compound 1 (CYP3A4 [4]; inhibitor 0 μM): 86%
Fold shift from wild-type ([5]; 184R-A (S282T), EC50 in resistant line divided by EC50 in wild-type cells): 30 fold
EC50 ([5]; Hepatitis C virus): 9 µM

Decay of Compound 7: level in cellular extracts (rat primary hepatocytes; decay time 0 h): 932 pmol/million cells
Decay of Compound 7: level in cellular extracts (rat primary hepatocytes; decay time 1 h): 954 pmol/million cells
Decay of Compound 7: level in cellular extracts (rat primary hepatocytes; decay time 4 h): 811 pmol/million cells
Decay of Compound 7: level in cellular extracts (rat primary hepatocytes; decay time 8 h): 545 pmol/million cells
Decay of Compound 7: level in cellular extracts (rat primary hepatocytes; decay time 24 h): 83.0 pmol/million cells
Compound 7 levels after 24 hours without drug (rat primary hepatocytes; [7]): 83 pmol/million cells
reduction of Compound 7 levels after 24 hours without drug (rat primary hepatocytes; [7]): 91%
Compound 7 levels at time zero (rat primary hepatocytes; rat hepatocytes, after 24 h with 10 μM [^14C]-Compound 1): 932 pmol/million cells
half-life at 10 μM ([6]; rat hepatocytes Rs458, after 24 h incubation with 10 μM [^14C]-Compound 1, linear regression): 397 min
half-life at 10 μM ([6]; rat hepatocytes, following [^14C]-Compound 1): 397 min
Compound: C[C@@]1(O)[C@H](O)[C@@H](COP(=O)(O)OP(=O)(O)OP(=O)(O)O)O[C@H]1n1cnc2c(=O)[nH]c(N)nc21 [Compound 7, [(2R)-2-methyl-β-D-ribofuranosyl]guanine 5′-triphosphate]
